# Read-outs that look alike come from different tables or passages of the source.
# Key:
# aldose reductase = target: T1, aldose reductase (Bos taurus, UniProt P16116); experiment: in vitro aldose reductase inhibition (modified Hayman and Kinoshita procedure, enzyme from bovine lens); type: biochemical; details: for inhibition at 0.04 µM: 4 × 10^-8 M; for inhibition at 0.1 µM / inhibition at 1 µM: read-out: % inhibition In Vitro
# T1 construct: preparation of the enzyme from bovine lens; from tissue; host or cells: bovine lens
# Procedure: Only two minor reagent changes were made: (a) the rinsing mixture was an aqueous 5% (w/v) trichloroacetic acid solution and (b) the stock solution was prepared by dissolving 25 mg of dulcitol in 100 ml of an aqueous trichloroacetic acid solution. [N.B.: For each experiment the average value found in the tissue from rats fed the glucose diet was subtracted from the individual values found in the corresponding tissue in galactose-fed rats to obtain the amount of polyol accumulated.] […] In the present case the procedure of Hayman and Kinoshita was modified in that the final chromatography step was omitted in the preparation of the enzyme from bovine lens.
# Galactitol Accumulation = experiment: lowering of galactitol (dulcitol) accumulation in tissues of galactosemic rats; type: in vivo, rat (Sprague-Dawley); details: four days, vs untreated galactosemic rats; for % Lowering Galactitol Accumulation In Vivo, D: diaphragm
# Text: The aldose reductase inhibiting property of the compounds of this invention and the utilization of the compounds in preventing, diminishing and alleviating diabetic complications are demonstrable in experiments using galactosemic rats, see Dvornik et al., Science, 182, 1146 (1973). Such experiments are exemplified hereinbelow after the listing of the following general comments pertaining to these experiments:
# (a) Four or more groups of six male rats, 50-70 g, Sprague-Dawley strain, were used. The first group, the control group, was fed a mixture of laboratory chow (rodent Laboratory Chow, Purina) and glucose at 20% (w/w %) concentration. An untreated galactosemic group was fed a similar diet in which galactose was substituted for glucose. The third group was fed a diet prepared by mixing a given amount of the test compound with the galactose containing diet. The concentration of galactose in the diet of the treated groups was the same as that for the untreated galactosemic group.
# (b) After four days, the animals were killed by euthanization. Both the lens and sciatic nerve were removed, weighed and stored frozen for polyol determination.
# (c) The polyol determination was performed by a modification of the procedure of M. Kraml and L. Cosyns, Clin. Biochem., 2, 373 (1969). Only two minor reagent changes were made: (a) the rinsing mixture was an aqueous 5% (w/v) trichloroacetic acid solution and (b) the stock solution was prepared by dissolving 25 mg of dulcitol in 100 ml of an aqueous trichloroacetic acid solution. [N.B.: For each experiment the average value found in the tissue from rats fed the glucose diet was subtracted from the individual values found in the corresponding tissue in galactose-fed rats to obtain the amount of polyol accumulated.] The aldose reductase inhibiting effects of the compounds of formula (I) were also tested by employing an in vitro testing procedure similar to that described by S. Hayman and J. H. Kinoshita, J. Biol. Chem., 240, 877 (1965). In the present case the procedure of Hayman and Kinoshita was modified in that the final chromatography step was omitted in the preparation of the enzyme from bovine lens.
# The figures under L, N, and D represent the percentage decrease of dulcitol accumulation in the tissues of the lens, sciatic nerve, and diaphragm, respectively, for treated rats as compared to untreated rats.
inhibition at 0.1 µM (aldose reductase; 10^-7 M),SMILES,inhibition at 0.04 µM (aldose reductase),inhibition at 0.1 µM (aldose reductase),inhibition at 1 µM (aldose reductase),"% Lowering Galactitol Accumulation In Vivo, D (Galactitol Accumulation; 4.6 mg/kg/day in diet)",inhibition at 1 µM (aldose reductase; 10^-6 M),"% Lowering Galactitol Accumulation In Vivo, D (Galactitol Accumulation; 0.5 mg/kg/day in diet)","% Lowering Galactitol Accumulation In Vivo, D (Galactitol Accumulation; 1.1 mg/kg/day in diet)","% Lowering Galactitol Accumulation In Vivo, L (Galactitol Accumulation; lens, 1.1 mg/kg/day in diet)","% Lowering Galactitol Accumulation In Vivo, D (Galactitol Accumulation; 1.0 mg/kg/day in diet)"
,"O=C1CC2(C(=O)N1)C(=O)N(Cc1nc3ccccc3s1)C(=O)c1ccc(F)cc12 (centres unmarked) [R^1=F, R^3=H, 2-(2-Benzothiazolylmethyl)-6-fluorospiro[isoquinoline-4(1H),3'-pyrrolidine]-1,2',3,5'(2H)-tetrone]",91%,94%,96%,93%,,,,,
,"O=C1CC2(C(=O)N1)C(=O)N(Cc1nc3cc(C(F)(F)F)ccc3s1)C(=O)c1ccccc12 (centres unmarked) [R^1=H, R^3=CF3, 2-[[5-(Trifluoromethyl)-2-benzothiazolyl]methyl]spiro[isoquinoline-4-(1H),3'-pyrrolidine]-1,2',3,5'(2H)-tetrone]",90%,93%,,,95%,94%,89%,22%,
,"O=C1CC2(C(=O)N1)C(=O)N(Cc1nc3cc(C(F)(F)F)ccc3s1)C(=O)c1ccc(F)cc12 (centres unmarked) [R^1=F, R^3=CF3, 6-Fluoro-2-[[5-(trifluoromethyl)-2-benzothiazolyl]methyl]spiro-[isoquinoline-4(1H),3'-pyrrolidine]-1,2',3,5'(2H)-tetrone]",92%,94%,,,95%,,,,85%
92%,"O=C1CC2(C(=O)N1)C(=O)N(Cc1nc3ccccc3s1)C(=O)c1ccccc12 (centres unmarked) [R^1=H, R^3=H, 2-(2-Benzothiazolylmethyl)spiro[isoquinoline-4(1H),3'-pyrrolidine)-1,2',3,5'(2H)-tetrone]",81%,,,,97%,,,,

# — US5093496A, “Spiro-isoquinoline-pyrrolidines and analogs thereof useful as aldose reductase inhibitors” (American Home Products Corporation, priority 1991, dated 1992)
